Data reported in US20230219978A1, “COMPOUND HAVING MACROCYCLIC STRUCTURE AND USE THEREOF” (SCINNOHUB PHARMACEUTICAL CO., LTD, priority 2020, published 2023).

How the values were obtained:
Format in all cases: biochemical
RET G810R = biological target: T1, RET G810R (Homo sapiens, UniProt P07949, G810R); test: In vitro kinase activity assay (mobility shift assay), RET G810R; details: ATP 201 μM, reaction time 4 h
T1 construct: purchased Proqinase 1724-0000-1
Procedure: (§1) The IC50 (half inhibitory concentration) values of the compounds were used as an indicator to evaluate the inhibitory effect of the compound on RET wild-type, RET mutant, TRKa, SRC, BTK and/or mutated BTK kinase.
(§2) Using the method of Mobility shift assay, the compounds were tested for inhibitory activity against the following kinases: RET wild type, RET mutant, TRKa, SRC, BTK and/or mutated BTK. The initial concentration of the test compound was 1000 nM, 3-fold dilution, 10 concentrations, detected in a well for each concentration.
(§3) 20 mM hydroxyethylpiperazineethanesulfonic acid (Hepes) (pH 7.5) buffer, 10 mM MgCl2, 1 mM ethylene glycol bis(aminoethyl ether)tetraacetic acid (EGTA), 0.02% polyoxyethylene lauryl ether (Brij35), 0.02 mg/ml […] (BSA), 0.1 mM Na3VO4, 2 mM dithiothreitol (DTT), 1% DMSO.
(§4) The test compounds were dissolved in 100% dimethyl sulfoxide (DMSO) system, and prepared as 10 mM for use, and stored in a nitrogen cabinet away from light.
(§5) • (1) Preparing 1× kinase reaction buffer. • (2) Preparation of compound concentration gradient: the initial concentration of the compounds was 1000 nM, which was diluted as 100-fold final concentration of solution in 100% dimethyl sulfoxide (DMSO) in a 384-well plate. The compound was accurately 3-fold diluted with the kinase buffer solution, 10 concentrations in total, and the final concentration was 0.0508 nM. The 100-fold final concentration of solution in 100% dimethyl sulfoxide (DMSO) was obtained by dilution in 384 source plate. The liquid separator Echo 550 was used to transfer 250 nl of 100-fold final concentration of compound to the target 384 well plate. 250 nl of DMSO was added to the positive and negative control wells. • (3) 2.5-fold final concentration of kinase solution was prepared by the 1× kinase buffer. • (4) 10 4, of 2.5-fold final concentration of kinase solution was added to the compound well and the positive control well, respectively; 10 4, of 1× kinase buffer was added to the negative control well. • (5) After centrifuging at 1000 rpm for 30 second, the reaction plate was shaken and mixed, followed by incubation at room temperature for 10 min. • (6) a mixed solution of 25/15-fold final concentration of adenosine triphosphate (ATP) and kinase substrate was prepared by 1× kinase buffer. • (7) The mixed solution (15 μL) of 25/15-fold final concentration of adenosine triphosphate (ATP) and substrate was added to initiate the reaction. • (8) 384-well plate was centrifuged at 1000 rpm for 30 second, shaken and mixed well, and then incubated at room temperature for 30-240 min. • (9) After stopping the kinase reaction, the plate was centrifugated at 1000 rpm for 30 second, shaken and mixed well. • (10)The conversion rate was read with Caliper EZ Reader.
(§6) wherein Conversion%_sample is the conversion rate reading of the sample; Conversion%_min: the mean value of negative control wells, representing the conversion rate reading of wells without enzymes; Conversion%_max: the mean value of positive control wells, representing the conversion rate reading of wells without compound inhibition.
(§7) The log value of concentration was taken as the X axis, and the percentage inhibition rate was taken as the Y axis. Graphpad 6.0 analysis software was used to fit the dose-response curve, so as to obtain the IC50 value of each compound on the enzyme activity

RET wt = biological target: T2, RET wt (Homo sapiens, UniProt P07949); test: In vitro kinase activity assay (mobility shift assay), RET wild type; details: ATP 16 μM, reaction time 60 min
T2 construct: purchased Carna 08-159
T2 sequence (P07949 29-1114): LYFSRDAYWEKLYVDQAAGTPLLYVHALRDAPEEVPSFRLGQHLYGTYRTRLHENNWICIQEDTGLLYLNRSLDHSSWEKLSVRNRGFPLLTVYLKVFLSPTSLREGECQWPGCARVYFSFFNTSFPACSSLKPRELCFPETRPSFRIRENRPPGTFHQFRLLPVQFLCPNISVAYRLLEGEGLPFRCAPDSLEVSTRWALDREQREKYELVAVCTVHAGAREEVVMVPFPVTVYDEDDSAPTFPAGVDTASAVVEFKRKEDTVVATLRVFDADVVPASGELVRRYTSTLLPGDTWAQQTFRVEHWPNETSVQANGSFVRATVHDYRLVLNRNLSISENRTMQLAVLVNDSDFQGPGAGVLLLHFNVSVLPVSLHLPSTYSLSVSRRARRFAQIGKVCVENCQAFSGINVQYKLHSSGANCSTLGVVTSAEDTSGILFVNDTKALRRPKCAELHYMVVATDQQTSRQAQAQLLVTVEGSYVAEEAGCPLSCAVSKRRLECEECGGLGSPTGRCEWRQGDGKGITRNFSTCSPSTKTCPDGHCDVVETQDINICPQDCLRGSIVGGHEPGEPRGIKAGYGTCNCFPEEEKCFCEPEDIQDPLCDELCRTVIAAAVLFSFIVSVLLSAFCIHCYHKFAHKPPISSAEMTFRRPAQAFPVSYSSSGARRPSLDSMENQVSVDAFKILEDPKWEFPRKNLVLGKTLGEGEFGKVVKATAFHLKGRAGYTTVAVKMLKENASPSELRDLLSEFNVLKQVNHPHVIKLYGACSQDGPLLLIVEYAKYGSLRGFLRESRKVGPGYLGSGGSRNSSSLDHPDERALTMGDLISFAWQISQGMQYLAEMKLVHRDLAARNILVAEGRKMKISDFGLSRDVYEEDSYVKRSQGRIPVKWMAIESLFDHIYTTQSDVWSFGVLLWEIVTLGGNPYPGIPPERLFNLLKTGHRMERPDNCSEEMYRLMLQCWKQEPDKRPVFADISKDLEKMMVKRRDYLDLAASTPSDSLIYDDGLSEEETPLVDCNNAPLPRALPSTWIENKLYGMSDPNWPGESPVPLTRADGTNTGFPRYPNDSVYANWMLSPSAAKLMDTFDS
Procedure: as §1, §2, §3, §4, §5, §6, §7

RET V804M = biological target: T3, RET V804M (Homo sapiens, UniProt P07949, V804M); test: In vitro kinase activity assay (mobility shift assay), RET V804M; details: ATP 5.4 μM, reaction time 60 min
T3 construct: purchased signalchem R02-12GG
T3 sequence (P07949 29-1114 V804M): as the sequence (P07949 29-1114) above, with V776M counted along it
Procedure: as §1, §2, §3, §4, §5, §6, §7

T1 sequence (P07949 29-1114 G810R): as the sequence (P07949 29-1114) above, with G782R counted along it

| IC50 (RET G810R) [µM] | IC50 (RET wt) [µM] | IC50 (RET V804M) [µM] | SMILES |
| --- | --- | --- | --- |
| 0.0969 | 0.0051 | – | C[C@H]1CNC(=O)c2cnn3cc(-c4ccc(NC(=O)OCC5CC5)cc4Cl)c(nc23)NCc2cc(F)cnc2O1 [Compound 46, cyclopropylmethyl (3-chloro-4-((S, 1^3E, 1^4E)-4^5-fluoro-6-methyl-9-oxo-5-oxadiaza-2,8-1(5,3)-pyrazolo[1,5-a]pyrimidin-4(3,2)-pyridinacyclononaphan-1^6-yl)phenyl)carbamate] |
| > 1 | 0.026 | > 1 | C[C@H]1CNC(=O)c2cnn3cc(-c4ccccc4)c(nc23)NCc2cc(Cl)cnc2O1 [Compound 47, (S, 1^3E, 1^4E)-4^5-chloro-6-methyl-1^6-phenyl-5-oxa-2,8-diaza-1(5,3)-pyrazolo[1,5-a]pyrimidina-4(3,2)-pyridinacyclononaphan-9-one] |
| > 1 | > 1 | > 1 | C[C@H]1CNC(=O)c2cnn3cc(-c4ccccc4)c(nc23)NCc2cc(Nc3ccccn3)cnc2O1 [Compound 48, (S, 1^3E, 1^4E)-6-methyl-1^6-phenyl-4^5-(pyridin-2-ylamino)-5-oxa-2,8-diaza-1(5,3)-pyrazolo[1,5-a]pyrimidina-4(3,2)-pyridinacyclononaphan-9-one] |
| 0.588 | 0.0054 | – | C[C@H]1CNC(=O)c2cnn3c(N)c(-c4ccc5nc[nH]c5c4)c(nc23)NCc2cc(F)cnc2O1 [Compound 52, (S, 1^3E, 1^4E)-1^7-amino-1 ^6-(1H-benzo [d]imidazol-6-yl)-4^5-fluoro-6-methyl-5-oxo-2,8-diaza-1(5,3)-pyrazolo[1,5-a]pyrimidin-4(3,2)-pyridinacyclononaphan-9-one] |
| 0.0843 | 0.0011 | – | CNC(=O)Nc1ccc(-c2c3nc4c(cnn4c2N)C(=O)NC[C@H](C)Oc2ncc(F)cc2CN3)cc1 [Example 55, 1-(4-((S, 1^3E, 1^4E)-1^7-amino-4^5-fluoro-6-methyl-9-oxo-5-oxo-2,8-diaza-1(5,3)-pyrazolo[1,5-a]pyrimidin-4(3,2)-pyridinacyclononaphan-1^6-yl)phenyl)-3-methylurea] |
| > 1 | 0.047 | – | CC(C)Nc1ccc(-c2c3nc4c(cnn4c2N)C(=O)NC[C@H](C)Oc2ncc(F)cc2CN3)cc1 [Example 57, (S, 1^3E, 1^4E)-1^7-amino-4^5-fluoro-1^6-(4-(isopropylamino)phenyl)-6-methyl-5-oxo-2,8-diaza-1(5,3)-pyrazolo[1,5-a]pyrimidin-4(3,2)-pyridinacyclononaphan-9-one] |
| 0.155 | 0.0034 | – | C[C@H]1CNC(=O)c2cnn3c(N)c(-c4ccc(N(C)C)cc4)c(nc23)NCc2cc(F)cnc2O1 [Example 58, (S, 1^3E, 1^4E)-1^7-amino-1^6-(4-(dimethylamino)phenyl)-4^5-fluoro-6-methyl-5-oxo-2,8-diaza-1(5,3)-pyrazolo[1,5-a]pyrimidin-4(3,2)-pyridinacyclononaphan-9-one] |
| 0.13 | 0.0024 | 0.038 | COc1ccc(-c2c3nc4c(cnn4c2N)C(=O)NC[C@H](C)Oc2ncc(F)cc2CN3)cc1 [Example 59, (S, 1^3E, 1^4E)-1^7-amino-4^5-fluoro-1^6-(4-methoxyphenyl)-6-methyl-5-oxo-2,8-diaza-1(5,3)-pyrazolo[1,5-a]pyrimidin-4(3,2)-pyridinacyclononaphan-9-one] |
| 0.0218 | 0.001 | – | CC(C)OC(=O)Nc1ccc(-c2c3nc4c(cnn4c2N)C(=O)NC[C@H](C)Oc2ncc(F)cc2CN3)cc1 [Example 61, iso-propyl (4-((S, 1^3E, 1^4E)-1^7-amino-4^5-fluoro-6-methyl-9-oxo-5-oxa-2,8-diaza-1(5,3)-pyrazolino[1,5-a]pyrimidin-4(3,2)-pyridinacyclononaphan-1^6-yl)-phenyl)carbamate] |
| 0.015 | 0.00026 | 0.00094 | CCOC(=O)Nc1ccc(-c2c3nc4c(cnn4c2N)C(=O)NC[C@H](C)Oc2ncc(F)cc2CN3)cc1 [Example 62, ethyl (4-((S, 1^3E, 1^4E)-1^7-amino-4^5-fluoro-6-methyl-9-oxo-5-oxa-2,8-diaza-1(5,3)-pyrazolino [1,5-a]pyrimidin-4(3,2)-pyridinacyclononaphan-1^6-yl)-phenyl)carbamate] |
| 0.0357 | 0.00119 | 0.00358 | CCCOC(=O)Nc1ccc(-c2c3nc4c(cnn4c2N)C(=O)NC[C@H](C)Oc2ncc(F)cc2CN3)cc1 [Example 67, propyl (4-((S, 1^3E, 1^4E)-1^7-amino-4^5-fluoro-6-methyl-9-oxo-5-oxa-2,8-diaza-1(5,3)-pyrazolino [1,5-a]pyrimidin-4(3,2)-pyridinacyclononaphan-1^6-yl)-phenyl)carbamate] |

More lines, now with the values behind:

| SMILES | IC50 (RET G810R) [µM] | IC50 (RET wt) [µM] | IC50 (RET V804M) [µM] |
| --- | --- | --- | --- |
| CNC(=O)Nc1ccc(-c2cn3ncc4c3nc2NCc2cc(F)cnc2O[C@@H](C)CNC4=O)cc1 [Compound 32, 1-(4-((S, 1^3E, 1^4E)-4^5-fluoro-6-methyl-9-oxo-5-oxa-2,8-diaza-1(5,3)-pyrazolo[1,5-a]pyrimidin-4(3,2)-pyridinacyclononaphan-1^6-yl)phenyl)-3-methylurea] | 0.0982 | 0.0142 | 0.059 |
| C[C@H]1CNC(=O)c2cnn3cc(-c4ccc5[nH]ccc5c4Cl)c(nc23)NCc2cc(F)cnc2O1 [Compound 34, (S, 1^3E, 1^4E)-1^6-(4-chloro-1H-indo1-5-yl)-4^5-fluoro-6-methyl-5-oxo-2,8-diaza-1(5,3)-pyrazolo[1,5-a]pyrimidin-4(3,2)-pyridinacyclononaphan-9-one] | 0.377 | 0.0054 | – |
| CNC(=O)Nc1ccc(-c2cn3ncc4c3nc2NCc2cc(F)cnc2O[C@@H](C)CNC4=O)c(Cl)c1 [Compound 35, 1-(3-chloro-4-((S, 1^3E, 1^4E)-4^5-fluoro-6-methyl-9-oxo-5-oxo-2,8-diaza-1(5,3)-pyrazolo[1,5-a]pyrimidin-4(3,2)-pyridinacyclononaphan-1^6-yl)phenyl)-3-methylurea] | 0.197 | 0.0019 | – |
| C[C@H]1CNC(=O)c2cnn3cc(-c4ccc(N)cc4)c(nc23)NCc2cc(F)cnc2O1 [Compound 36, (S, 1^3E, 1^4E)-1^6-(4-aminophenyl)-4^5-fluoro-6-methyl-5-oxo-2,8-diaza-1(5,3)-pyrazolo[1,5-a]pyrimidin-4(3,2)-pyridinacyclononaphan-9-one] | > 1 | 0.027 | – |
| C[C@H]1CNC(=O)c2cnn3cc(-c4cn[nH]c4)c(nc23)NCc2cc(F)cnc2O1 [Compound 37, (S, 1^3E, 1^4E)-4^5-fluoro-6-methyl-1^6-(1H-pyrazol-4-yl)-5-oxa-2,8-diaza-1(5,3)-pyrazolo[1,5-a]pyrimidin-4(3,2)-pyridinacyclononaphan-9-one] | > 1 | 0.095 | – |
| CNc1ccc(-c2cn3ncc4c3nc2NCc2cc(F)cnc2O[C@@H](C)CNC4=O)c(Cl)c1 [Compound 39, (S, 1^3E, 1^4E)-1^6-(4-methylamino-2-chlorophenyl)-4^5-fluoro-6-methyl-5-oxa-2,8-diaza-1(5,3)-pyrazolo[1,5-a]pyrimidina-4(3,2)-pyridinacyclononaphan-9-one] | 0.376 | 0.003 | – |
| C[C@H]1CNC(=O)c2cnn3cc(-c4ccc(Nc5ncco5)cc4)c(nc23)NCc2cc(F)cnc2O1 [Compound 42, (S, 1^3E, 1^4E)-4^5-fluoro-6-methyl-1^6-(4-(oxazol-2-amino)phenyl)-5-oxa-2,8-diaza-1(5,3)-pyrazolo[1,5-a] pyrimidin-4(3,2)-pyridinacyclononaphan-9-one] | > 1 | > 1 | > 1 |
| C[C@H]1CNC(=O)c2cnn3cc(-c4ccc(NS(C)(=O)=O)cc4Cl)c(nc23)NCc2cc(F)cnc2O1 [Compound 44] | > 1 | 0.286 | – |
